Series [1] can be described thus: In vivo metabolism of CBN in female mice, plasma levels by targeted LC/MS/MS. Further details: species or system C57BL/6 mice. The settings on record: for CBN-11-OH formation relative to CBN-1′-OH / CBN-11-OH formation relative to CBN-quinone: 0.5 h, plasma. How it is done: Initially dissolved in ethanol, CBN was combined with a volume of Tween 80, constituting 6% of the total solution volume for injection. Ethanol was eliminated via vacuum evaporation, and saline was added to prepare a 4 mg/mL solution. CBN (20 mg/kg) or vehicle was administered to C57BL/6 mice intravenously (IV) through the retro-orbital sinus or intraperitoneally (IP) at the lower right quadrant of the abdomen. Animals were euthanized at 30- or 120 min postinjection. Blood samples, collected via cardiac puncture into heparin tubes, underwent cold centrifugation at 4500 rpm for 15 min to isolate plasma. Plasma and whole liver samples were flash-frozen at −80 °C for subsequent analysis. Our decision to use female mice for this experiment was based on the availability of age-matched mice in the colony at the time of the experiment.
Mice were anaesthetized with a 3% inhalant dose of isoflurane until their respiratory rate decreased to 50% of baseline (i.e., 40–60 breaths/min) and the righting reflex was abolished. Mice were subsequently removed from the induction chamber and laid on their side. Using the index finger and thumb of the nondominant hand, the skin above and below the eye was retracted until a slight protrusion from the socket was noted. A 29G1/2 needle was inserted, bevel down, into the medial canthus at an approximate 45-degree angle until slight resistance was noted. Volume was slowly infused at a rate of 15uL/second. The needle was subsequently removed from the eye socket, and ophthalmic ointment was added.
Animals were gently restrained by scruff, and the injection site at the lower right quadrant of the abdomen was identified. The needle was inserted at a 60-degree angle to the body, and the plunger was lightly withdrawn to ensure the needle was not in contact with viscera or organs before dispensing volume.
200 μL plasma samples were collected and used for extraction using 1 mL of Hexane: Ethyl acetate (8:2 v/v) following a similar protocol described above.
Samples were analyzed using the Sciex QTrap 6500+ system (Framingham, MA) with Waters Acquity I- class plus UPLC. Software Analyst 1.7.1 was used for data acquisition.
The LC separation was performed on a Waters Acquity UPLC BEH column (2.1 × 100 mm, 1.7 μm) with mobile phase A (0.1% formic acid in water) and mobile phase B (0.1% formic acid in acetonitrile). The flow rate was 0.5 mL/min unless noted otherwise. The linear gradient was as follows: 0–0.5 min, 70%A; 2 min, 20%A; 4–4.2 min, 0%A; 4.21–5.2 min, 0%A (0.8 mL/min); 5.3–6.9 min, 70%A. The autosampler was set at 10 °C, and the column was kept at 50 °C. The injection volume was 5 μL.
Mass spectra were acquired under positive electrospray ionization (ESI) with the ion spray voltage of 4500 V. The source temperature was 500 °C. The curtain gas, ion source gas 1, and ion source gas 2 were 32, 50, and 70 psi, respectively. Multiple reaction monitoring (MRM) was used for quantitation with the MRM transition of CBN (m/z 311.2 → m/z 269.1), CBN-1′–OH (m/z 327.2 → m/z 253.1), CBN-11-OH (m/z 327.2 → m/z 128.1), CBN-p-quinone (m/z 325.2 → m/z 283.1) and EPEA-d4 as internal standard (m/z 350.3 → m/z 66.1).

Series [2] addresses T1, CYP2D6 (Homo sapiens, UniProt P10635).
T1 construct: polyhistidine (inferred from Ni-NTA purification and histidine elution); made in house; host or cells: E. coli (inferred from the pCWori vector and lysozyme/spheroplast preparation)
The series can be described thus: CYP2D6 (nanodisc)-mediated CBN metabolism, kinetics of metabolite formation. It counts as in vitro ADME. The following applies: CBN 5–80 μM. How it is done:
We carried out concentration-dependent metabolism of CBN in the presence of 2 CYPs: 2C9 and 2D6. For the experiment, we used an enzyme concentration of 0.5 μM, reconstituted in the lipid system of POPC: POPS (8:2 v/v), and CPR at 0.6 μM dissolved in 0.1 M potassium phosphate buffer for CYP2C9. The substrate CBN was used in a range of 5–80 μM. The reaction mixture was incubated at 37 °C for 10 min, and then NADPH was added (1 mM), allowing the reaction to proceed for an additional 30 min. We quenched the reactions using a mixture of Hexane: Ethyl Acetate (8:2 v/v) and used the same composition to extract the CBN metabolites. We did a total extraction for three cycles. […]
Samples were analyzed with the Sciex QTrap 6500+ system (Framingham, MA) with Waters Acquity I-class plus UPLC. […]
(§1) Mass spectra were acquired under positive electrospray ionization (ESI) with the ion spray voltage of 4500 V. The source temperature was 500 °C. […] Multiple reaction monitoring (MRM) was used for quantitation, as described in transitions CBN (m/z 311.2 → m/z 205.1), CBN-1′–OH (m/z 327.2 → m/z 253.1), CBN-11-OH (m/z 327.2 → m/z 291.1), CBN-p-quinone (m/z 325.2 → m/z 283.1) and CBC-d9 as internal standard (m/z 324.2→ m/z 202.1).
(§2) All data were analyzed using the software Skyline (daily version 22.2.1.278). […]

Series [3] deals with human liver microsomes. Nature of the series: CBN metabolism by human liver microsomes, metabolite formation rate. It counts as in vitro ADME. The settings on record: HLM, across different CBN concentrations. How it is done:
We carried out concentration-dependent metabolism of CBN in the presence of 2 CYPs: 2C9 and 2D6. For the experiment, we used an enzyme concentration of 0.5 μM, reconstituted in the lipid system of POPC: POPS (8:2 v/v), and CPR at 0.6 μM dissolved in 0.1 M potassium phosphate buffer for CYP2C9. The substrate CBN was used in a range of 5–80 μM. The reaction mixture was incubated at 37 °C for 10 min, and then NADPH was added (1 mM), allowing the reaction to proceed for an additional 30 min. We quenched the reactions using a mixture of Hexane: Ethyl Acetate (8:2 v/v) and used the same composition to extract the CBN metabolites. We did a total extraction for three cycles. Following the extractions, the extractions were dried under a continuous stream of nitrogen, and the residual products were finally dissolved in 90% ethanol. We used CYP2D6 in a nanodisc for the metabolism of CBN. […] We carried out the same protocol for the metabolism of CBN using 1 μg of human liver microsome, CPR (0.6 μM) and NADPH (1 mM).
Samples were analyzed with the Sciex QTrap 6500+ system (Framingham, MA) with Waters Acquity I-class plus UPLC. Software Analyst 1.7.1 was used for data acquisition.
The LC separation was performed on a Waters Acquity UPLC BEH column (2.1 × 100 mm, […]) with mobile phase A (0.1% formic acid in water) and mobile phase B (0.1% formic acid in acetonitrile). The flow rate was 0.5 mL/min unless noted otherwise. […]
as §1, §2

Series [4] deals with CB2 receptor (Homo sapiens, UniProt P34972). The series can be described thus: G protein nanoBRET assay, antagonist mode, CB2 receptor. The settings on record: 50 μM after pretreatment with 1 μM CP-55940. (In general: Bioluminescence resonance energy transfer reports proximity on the nanometre scale.)
Series [5] has as its target CYP3A4 (Homo sapiens, UniProt P08684, S18F). The series can be described thus: NADPH oxidation assay with CYP3A4 nanodisc and CPR. The following applies: triplicate.
In series [6] the test system is DRG neurons. The series can be described thus: Calcium responses of cultured DRG sensory neurons. In kind it is cell-based. The following applies: cultured mouse DRG neurons, 50 μM × 15 s. How it is done: 9 CBN and 11-OH CBN activate DRG neurons with similar response magnitudes but differ in their percentage of neurons activated and time to peak response. Calcium response traces of representative cultured mouse DRG neurons following application of CBN (A) and 11-OH CBN (B) 50 μM × 15 s (arrow). […] Mean value ± SEM (CBN: n = 59; 11-OH CBN: n = 29, two-tailed t test, Prism GraphPad).

The test system of series [7] is Arginase 1. Nature of the series: Arginase 1 ELISA in LPS-stimulated BV2 microglial cells. In kind it is cell-based. As to the method:
(§3) The BV2 microglial cells were subjected to the treatment of LPS both in the absence and presence of CBN and its selected metabolites. The seeding density for this assay was 1 × 10^5 cells/well. The cells were initially treated with the molecules for 4 h before being stimulated with LPS (25 ng/mL). The NO assay was performed 24 h after the treatment with LPS. The NO assay was performed according to the manufacturer’s protocol, and NO levels were quantified using nitrate standard curves. For the assay, 50 μL of cell media was used in a 96-well plate, and the absorbance was recorded at 540 nm. All measurements were performed in n = 5.
(§4) ELISA assays of IL-6, IL-10 (Item No. 88–7105), and Arginase 1 were performed using the same supernatant with which we had completed the NO and LDH assays. The culture media was collected, and the IL-6 (Thermo Scientific) and Arginase 1 (abcam) assays were performed using the specific monoclonal antibodies as per the manufacturer’s instructions.
On the technique in general: An ELISA detects its analyte on a solid surface through an enzyme-linked reagent.

For series [8], the system named is NO. The series can be described thus: NO levels in LPS-stimulated BV2 microglial cells. In kind it is cell-based. How it is done: as §3
For series [9], the target named is CB1 receptor (Homo sapiens, UniProt P21554). The series can be described thus: G protein nanoBRET assay, antagonist mode, CB1 receptor. The settings on record: 50 μM after pretreatment with 1 μM CP-55940.
The test system of series [10] is IL-6. Nature of the series: IL-6 ELISA in LPS-stimulated BV2 microglial cells. The settings on record: LPS-stimulated BV2, 5 μM. It counts as cell-based. As to the method:
as §3, §4

In series [11] the test system is IL-10. The series can be described thus: IL-10 ELISA in LPS-stimulated BV2 microglial cells. In kind it is cell-based. The following applies: LPS-stimulated BV2, 1–5 μM. As to the method:
as §3, §4

Substrate in series [12]: CCCCCC1=CC(=O)C2=C(OC(C)(C)c3ccc(C)cc32)C1=O
Nature of the series: not read. The settings on record: other: CYP2C9, CBN 5–80 μM.
Protocol: (§5) For the experiment, we used an enzyme concentration of 0.5 μM, reconstituted in the lipid system of POPC: POPS (8:2 v/v), and CPR at 0.6 μM dissolved in 0.1 M potassium phosphate buffer for CYP2C9. […] The reaction mixture was incubated at 37 °C for 10 min, and then NADPH was added (1 mM), allowing the reaction to proceed for an additional 30 min. […] We did a total extraction for three cycles. Following the extractions, the extractions were dried under a continuous stream of nitrogen, and the residual products were finally dissolved in 90% ethanol.
(§6) The LC separation was performed on a Waters Acquity UPLC BEH column (2.1 × 100 mm, 1.7 μM) with mobile phase A (0.1% formic acid in water) and mobile phase B (0.1% formic acid in acetonitrile). The flow rate was 0.5 mL/min unless noted otherwise. The linear gradient was as follows: 0–0.5 min, 70%A; 2 min, 20%A; 4–4.2 min, 0%A; 4.21–5.2 min, 0%A (0.8 mL/min); 5.3–6.9 min, 70%A. The autosampler was set at 10 °C, and the column was kept at 50 °C. The injection volume was 5 μL.
(§7) All data were analyzed using the software Skyline (daily version 22.2.1.278). It includes raw data import, peak integration, and a linear regression fit with 1/×2 weighting for the calibration curves.

Substrate in series [13]: CCCC[C@H](O)c1cc(O)c2c(c1)OC(C)(C)c1ccc(C)cc1-2
Protocol: as §5, §6, §7
The series can be described thus: not read. The settings on record: other: CYP2C9, CBN 5–80 μM.

Broadly, the Km is the concentration of substrate that gives half-maximal velocity.

CB2 receptor, sequence (P34972 whole entry): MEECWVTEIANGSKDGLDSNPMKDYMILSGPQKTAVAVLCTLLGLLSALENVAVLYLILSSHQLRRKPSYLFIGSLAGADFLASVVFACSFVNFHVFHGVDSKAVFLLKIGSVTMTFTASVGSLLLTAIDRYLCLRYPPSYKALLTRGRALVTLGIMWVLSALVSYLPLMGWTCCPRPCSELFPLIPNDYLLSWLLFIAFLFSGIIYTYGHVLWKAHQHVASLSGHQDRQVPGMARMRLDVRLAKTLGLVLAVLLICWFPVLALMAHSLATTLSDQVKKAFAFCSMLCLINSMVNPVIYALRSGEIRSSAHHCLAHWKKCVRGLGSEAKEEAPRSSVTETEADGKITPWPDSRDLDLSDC
T1 sequence (P10635 with tags, fused parts or gaps limits assumed): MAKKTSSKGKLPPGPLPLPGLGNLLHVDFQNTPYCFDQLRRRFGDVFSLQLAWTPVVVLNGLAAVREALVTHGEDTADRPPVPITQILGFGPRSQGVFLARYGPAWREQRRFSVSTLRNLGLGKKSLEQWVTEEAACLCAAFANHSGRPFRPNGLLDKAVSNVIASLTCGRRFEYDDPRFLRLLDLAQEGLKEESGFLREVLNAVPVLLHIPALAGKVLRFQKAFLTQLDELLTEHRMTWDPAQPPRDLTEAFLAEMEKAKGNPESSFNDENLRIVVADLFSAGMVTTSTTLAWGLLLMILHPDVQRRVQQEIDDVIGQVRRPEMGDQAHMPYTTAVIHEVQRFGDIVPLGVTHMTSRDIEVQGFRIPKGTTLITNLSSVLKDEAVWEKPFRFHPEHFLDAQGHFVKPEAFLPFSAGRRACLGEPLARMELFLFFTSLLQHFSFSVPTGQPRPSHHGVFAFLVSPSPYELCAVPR
CB1 receptor, sequence (P21554 whole entry): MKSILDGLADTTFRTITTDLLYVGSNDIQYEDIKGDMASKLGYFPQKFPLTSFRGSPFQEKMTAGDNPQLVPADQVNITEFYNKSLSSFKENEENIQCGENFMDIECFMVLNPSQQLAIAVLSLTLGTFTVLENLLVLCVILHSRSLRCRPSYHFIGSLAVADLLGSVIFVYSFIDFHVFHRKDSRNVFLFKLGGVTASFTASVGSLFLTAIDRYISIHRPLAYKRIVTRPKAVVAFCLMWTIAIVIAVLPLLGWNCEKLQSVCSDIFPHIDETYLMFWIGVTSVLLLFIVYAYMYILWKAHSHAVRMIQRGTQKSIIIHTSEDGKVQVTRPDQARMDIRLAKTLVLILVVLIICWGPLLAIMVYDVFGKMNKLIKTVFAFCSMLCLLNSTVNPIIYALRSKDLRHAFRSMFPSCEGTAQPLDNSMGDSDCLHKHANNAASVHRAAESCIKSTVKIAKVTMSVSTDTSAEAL
CYP3A4, sequence (P08684 with tags, fused parts or gaps S18F limits assumed): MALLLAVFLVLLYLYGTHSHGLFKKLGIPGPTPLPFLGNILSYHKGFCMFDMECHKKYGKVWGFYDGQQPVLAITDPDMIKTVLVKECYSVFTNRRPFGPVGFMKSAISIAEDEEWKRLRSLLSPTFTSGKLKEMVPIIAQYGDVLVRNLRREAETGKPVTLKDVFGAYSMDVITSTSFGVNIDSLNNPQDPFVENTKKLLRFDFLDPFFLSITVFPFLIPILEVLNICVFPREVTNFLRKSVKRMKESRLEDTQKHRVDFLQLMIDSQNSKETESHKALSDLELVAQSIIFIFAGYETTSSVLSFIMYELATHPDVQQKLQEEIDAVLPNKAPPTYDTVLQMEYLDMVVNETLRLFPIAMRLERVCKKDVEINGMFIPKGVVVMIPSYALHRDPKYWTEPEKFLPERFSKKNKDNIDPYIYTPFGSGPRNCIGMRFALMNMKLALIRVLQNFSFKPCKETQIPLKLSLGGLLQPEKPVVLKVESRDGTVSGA

On to `CCCCCC1=CC(=O)C2=C(OC(C)(C)c3ccc(C)cc32)C1=O` [CBN-quinone, 6,6,9-Trimethyl-3-pentyl-1H-benzo[c]chromene-1,4(6H)-dione], for which the “reduction of plasma level between 0.5 and 2 h” value (shortened to “reduction”) in series [1] (IV administration of CBN) is on record as 9 fold. For the same molecule, in [2], the “Vmax of metabolite formation from CBN” value is 5.6 pmol/min/nmol. In series [3], the “rate of metabolite formation from CBN” value is “further down by approximately three times the value of CBN-1′–OH”. In addition, the “inhibition of CB2 receptor” value in [4] is listed as “partial inhibition”.

`CC(C)C[C@H]1C(=O)N2CCC[C@H]2[C@]2(O)O[C@](NC(=O)[C@@H]3C=C4c5cccc6[nH]c(Br)c(c56)C[C@H]4N(C)C3)(C(C)C)C(=O)N12` [Bromocriptine, reference compound]: the “rate of NADPH oxidation in the presence of the compound” value in [5] came to 60.788±19.569 nmol/min/nmol.

As to `CCCCCc1cc(O)c2c(c1)OC(C)(C)c1ccc(CO)cc1-2` [CBN-11-OH, cannabinol-11-hydroxy], in [6], the “Ca2+ response (%)” value was 31.6 ± 2.8%; the “DRG neuron activation (%)” value is listed as 5.4 ± 1.1%; the “Response Time” value is 22.8 ± 2.2 s; the “[Ca2+]i responses, peak values” worked out at 31.6 ± 2.8%. Moreover, in series [6], the “percentage of DRG neurons activated” value is reported as 5.4 ± 1.1% and the “time to peak response” value is 22.8 ± 2.2 s. The Arginase1 levels result in [7] is “mixed results”. Moreover, the “production of NO” value in [8] (LPS-stimulated BV2, 5 μM) is listed as “slightly lower production of NO”. For the same molecule, the “change in NO levels compared to cells with only LPS treatment” value in [8] (LPS-stimulated BV2, 1, 2.5 and 5 μM) is given as “no detectable significant (ns) change”. Moreover, the “inhibition of CB1 activation” value in [9] is given as “complete ablation of the BRET signal”. Besides, the IL-6 levels result in series [10] is recorded as “reduction in IL-6 levels”. The “reduction” value in [1] (IP administration of CBN) is 2 fold. For the same molecule, in series [1] (IV administration of CBN), the “reduction” value is given as 3 fold. Besides, in series [1] (IV), the “CBN-11-OH formation relative to CBN-1′-OH” value is roughly 89 times and the “CBN-11-OH formation relative to CBN-quinone” value is given as roughly 55 times. In series [1] (i.p.), the “CBN-11-OH formation relative to CBN-1′-OH” value is given as roughly 82 fold and the “CBN-11-OH formation relative to CBN-quinone” value is reported as roughly 90 fold. Further, the IL-10 levels entry in series [11] is given as “concentration-dependent increase in IL-10 levels”. For the same molecule, the “rate of metabolite formation from CBN” value in series [3] is listed as ≤ 3.4 × 10^4 pmol/min/nmol. The “inhibition of CB2 receptor” value in [4] is “complete inhibition”.

B1: CYP2C9 (Homo sapiens) (protein)
chain: MDSLVVLVLCLSCLLLLSLWRQSSGRGKLPPGPTPLPVIGNILQIGIKDISKSLTNLSKVYGPVFTLYFGLKPIVVLHGYEAVKEALIDLGEEFSGRGIFPLAERANRGFGIVFSNGKKWKEIRRFSLMTLRNFGMGKRSIEDRVQEEARCLVEELRKTKASPCDPTFILGCAPCNVICSIIFHKRFDYKDQQFLNLMEKLNENIKILSSPWIQICNNFSPIIDYFPGTHNKLLKNVAFMKSYILEKVKEHQESMDMNNPQDFIDCFLMKMEKEKHNQPSEFTIESLENTAVDLFGAGTETTSTTLRYALLLLLKHPEVTAKVQEEIERVIGRNRSPCMQDRSHMPYTDAVVHEVQRYIDLLPTSLPHAVTCDIKFRNYLIPKGTTILISLTSVLHDNKEFPNPEMFDPHHFLDEGGNFKKSKYFMPFSAGKRICVGEALAGMELFLFLTSILQNFNLKSLVDPKNLDTTPVVNGFASVPPFYQLCFIPV
B1: in [12], the Km turned out to be 2.5 µM and the kcat worked out at 4.4 pmol/min/nmol. Moreover, in series [13], the Km is 2.3 µM and the kcat came to 12.1 pmol/min/nmol.

The values above are taken from paper PMC12257535, “Distinct Interactions of Cannabinol and Its Cytochrome P450-Generated Metabolites with Receptors and Sensory Neurons” (Journal of Medicinal Chemistry, 2025).
